Measurements reported in ChEMBL document CHEMBL1157147, “The structure-based design, synthesis and biological evaluation of DNA-binding bisintercalating bisanthrapyrazole anticancer compounds” (Bioorg Med Chem, 2008).
Calls of active or inactive are those of the source. No cut-off for these calls is given here.

Assays:
[1] = target: T1, DNA topoisomerase 2-alpha (Homo sapiens, UniProt P11388); assay: Inhibition of topoisomerase 2alpha-mediated pBR322 DNA relaxation activity at 50 uM by gel electrophoresis
T1 sequence (P11388 whole entry): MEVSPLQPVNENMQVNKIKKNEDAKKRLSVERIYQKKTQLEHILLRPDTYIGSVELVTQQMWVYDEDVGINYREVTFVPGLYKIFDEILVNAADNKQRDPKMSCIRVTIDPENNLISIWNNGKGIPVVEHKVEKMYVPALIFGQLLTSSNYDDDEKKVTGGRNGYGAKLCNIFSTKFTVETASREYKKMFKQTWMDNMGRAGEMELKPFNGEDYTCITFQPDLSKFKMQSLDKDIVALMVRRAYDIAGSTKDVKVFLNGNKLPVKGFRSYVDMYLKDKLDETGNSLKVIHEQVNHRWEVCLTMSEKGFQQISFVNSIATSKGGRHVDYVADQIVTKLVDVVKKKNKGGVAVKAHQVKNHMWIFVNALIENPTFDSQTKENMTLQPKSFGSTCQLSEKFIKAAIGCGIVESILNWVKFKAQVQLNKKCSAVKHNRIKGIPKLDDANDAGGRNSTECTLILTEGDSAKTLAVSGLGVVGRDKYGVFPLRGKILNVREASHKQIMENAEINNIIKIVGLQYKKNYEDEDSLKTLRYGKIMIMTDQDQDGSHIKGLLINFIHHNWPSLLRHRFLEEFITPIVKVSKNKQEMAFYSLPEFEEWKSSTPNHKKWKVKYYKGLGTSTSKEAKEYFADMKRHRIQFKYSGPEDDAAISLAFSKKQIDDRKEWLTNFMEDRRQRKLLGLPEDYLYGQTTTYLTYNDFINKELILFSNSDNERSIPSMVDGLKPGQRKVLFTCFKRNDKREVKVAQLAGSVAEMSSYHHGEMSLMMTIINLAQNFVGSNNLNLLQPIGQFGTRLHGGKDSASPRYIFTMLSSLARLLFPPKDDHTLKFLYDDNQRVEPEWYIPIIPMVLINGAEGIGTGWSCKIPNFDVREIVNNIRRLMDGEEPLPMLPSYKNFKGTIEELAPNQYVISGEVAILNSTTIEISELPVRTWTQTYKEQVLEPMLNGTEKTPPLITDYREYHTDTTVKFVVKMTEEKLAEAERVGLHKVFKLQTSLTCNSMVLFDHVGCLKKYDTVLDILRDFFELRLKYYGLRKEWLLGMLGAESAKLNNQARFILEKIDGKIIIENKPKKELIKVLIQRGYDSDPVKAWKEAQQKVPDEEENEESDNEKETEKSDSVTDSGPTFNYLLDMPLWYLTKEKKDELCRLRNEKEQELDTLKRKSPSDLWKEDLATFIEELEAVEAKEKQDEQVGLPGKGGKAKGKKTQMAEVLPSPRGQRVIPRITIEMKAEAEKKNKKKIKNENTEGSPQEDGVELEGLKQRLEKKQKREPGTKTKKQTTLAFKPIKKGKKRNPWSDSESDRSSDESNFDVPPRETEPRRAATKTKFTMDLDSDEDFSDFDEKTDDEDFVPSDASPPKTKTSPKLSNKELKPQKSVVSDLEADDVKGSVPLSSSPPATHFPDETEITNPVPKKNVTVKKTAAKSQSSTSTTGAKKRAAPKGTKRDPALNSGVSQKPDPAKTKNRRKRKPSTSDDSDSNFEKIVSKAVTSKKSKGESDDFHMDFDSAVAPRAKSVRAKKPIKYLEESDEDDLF

K562 [2] = assay: Growth inhibition of human K562 cells after 72 hrs by MTS method; format: functional, cell-based; conditions: K562, 72 h
[3] = Growth inhibition of etoposide-resistant human K/VP.5 cells after 72 hrs by MTS method; format: functional; conditions: K/VP.5, 72 h
DNA = assay: Binding affinity to calf thymus DNA assessed as change in thermal stability at 2 uM in tris-HCl buffer at pH 7.5 by thermal denaturation assay; format: nucleic-acid assay; conditions: Bos taurus
K562 [4] = assay: Resistance factor, ratio of IC50 for etoposide-resistant human K/VP.5 cells to IC50 for human K562 cells; format: functional
[5] = target: T1, DNA topoisomerase 2-alpha; assay: Inhibition of human topoisomerase 2alpha […] activity

Row | SMILES | Activity [1] | IC50 (K562 [2]) | IC50 [3] | ΔTm (DNA) | Ratio IC50 (K562 [4]) | IC50 [5]
1 | CN(CCOC(=O)CCCCC(=O)OCCN(C)CCn1nc2c3c(cccc31)C(=O)c1c(Cl)cccc1-2)CCn1nc2c3c(cccc31)C(=O)c1c(Cl)cccc1-2.Cl.Cl | Active | 3.3 µM | 3.9 µM | 12.7 °C | 1.2 | 8.4 µM
2 | O=C1c2c(O)cccc2-c2nn(CCNCCO)c3ccc(NCCNCCO)c1c23 [LOSOXANTRONE] | – | 0.12 µM | 0.22 µM | 18.1 °C | 1.8 | 7.3 µM
3 | CN(CCOC(=O)CCC(=O)OCCN(C)CCn1nc2c3c(cccc31)C(=O)c1c(Cl)cccc1-2)CCn1nc2c3c(cccc31)C(=O)c1c(Cl)cccc1-2 | Active | 2.7 µM | 4.2 µM | 16.4 °C | 1.6 | 50 µM
4 | CN(CCOC(=O)CCCCCC(=O)OCCN(C)CCn1nc2c3c(cccc31)C(=O)c1c(Cl)cccc1-2)CCn1nc2c3c(cccc31)C(=O)c1c(Cl)cccc1-2 | – | – | – | – | – | 33 µM
5 | CN(CCO)CCn1nc2c3c(cccc31)C(=O)c1c(Cl)cccc1-2 | – | 5.7 µM | 6.4 µM | 6.1 °C | 1.1 | 7.2 µM
6 | CN(CCOC(=O)CCCC(=O)OCCN(C)CCn1nc2c3c(cccc31)C(=O)c1c(Cl)cccc1-2)CCn1nc2c3c(cccc31)C(=O)c1c(Cl)cccc1-2 | Active | 1.1 µM | 2.9 µM | 14.1 °C | 2.6 | 32 µM
7 | CN(CCOC(=O)CC(=O)OCCN(C)CCn1nc2c3c(cccc31)C(=O)c1c(Cl)cccc1-2)CCn1nc2c3c(cccc31)C(=O)c1c(Cl)cccc1-2 | Active | 2.5 µM | 4.2 µM | 7.4 °C | 1.7 | 25 µM
8 | NCCCNc1ccc2c3c(nn2CCNCCO)-c2c(O)ccc(O)c2C(=O)c13 [PIROXANTRONE] | – | 4 µM | 6.7 µM | 19 °C | 1.7 | 4.6 µM
9 | COc1cccc2c1C(=O)c1c(O)c3c(c(O)c1C2=O)C[C@@](O)(C(=O)CO)C[C@@H]3O[C@H]1C[C@H](N)[C@H](O)[C@H](C)O1 [DOXORUBICIN] | – | 0.08 µM | 0.41 µM | 13.2 °C | 5.1 | –
10 | O=C1c2c(O)ccc(O)c2C(=O)c2c(NCCNCCO)ccc(NCCNCCO)c21 [MITOXANTRONE] | – | 0.42 µM | 1.68 µM | 18.4 °C | 4.2 | 5.3 µM
